According to patent publication US20130109682A1, “CYCLIC ETHER COMPOUNDS USEFUL AS KINASE INHIBITORS” (NOVARTIS AG, priority 2010, published 2013):

How the values were obtained:
PIM3 = PIM3 (Homo sapiens, UniProt Q86V86); assay: Pim 3 AlphaScreen assay (high ATP); format: biochemical; conditions: read-out: Pim3 IC50
Procedure, shortened: (§1)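 This is a bead-based AlphaScreen run at high ATP (11-125× Km) with biotin-Bad peptide (100 nM in the substrate mix), in 50 mM Hepes pH 7.5, 5 mM MgCl2, 0.05% BSA, 0.01% Tween-20, 1 mM DTT and 2.5% DMSO final. After ~2 h the reaction was stopped with EDTA. Phospho-peptide was detected overnight with anti-phospho Ser/Thr antibody on Protein A and streptavidin beads, giving IC50.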

[1] = test system: KMS11 (human myeloma cell line); assay: Cell proliferation assay (CellTiter-Glo), KMS11; format: cell-based; conditions: Homo sapiens, KMS-11; KMS11 cells, cell proliferation; read-out: KMS11-Luc EC50
Procedure, shortened: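 KMS11 cells in IMDM with 10% FBS and sodium pyruvate, seeded at 2000 cells/well on assay day. Compound added at 2× to equal volume of cells, incubated 3 days at 37° C. Viability read by CellTiter-Glo luminescence; EC50 derived.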

PIM1 = PIM1 (Homo sapiens, UniProt P11309); assay: Pim 1 AlphaScreen assay (high ATP); format: biochemical; conditions: read-out: Pim1 IC50
Chain of PIM1 (P11309 whole entry): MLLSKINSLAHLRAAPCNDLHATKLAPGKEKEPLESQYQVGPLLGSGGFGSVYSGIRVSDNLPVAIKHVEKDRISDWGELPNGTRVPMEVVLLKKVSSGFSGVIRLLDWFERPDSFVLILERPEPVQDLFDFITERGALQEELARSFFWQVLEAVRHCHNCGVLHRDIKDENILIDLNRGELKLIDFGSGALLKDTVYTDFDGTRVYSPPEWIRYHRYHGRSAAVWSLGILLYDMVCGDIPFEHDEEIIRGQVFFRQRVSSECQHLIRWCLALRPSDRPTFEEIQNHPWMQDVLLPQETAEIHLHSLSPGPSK
Procedure, shortened: as §1

PIM2 = PIM2 (Homo sapiens, UniProt Q9P1W9); assay: Pim 2 AlphaScreen assay (high ATP); format: biochemical; conditions: read-out: Pim2 IC50
Chain of PIM2 (Q9P1W9 whole entry): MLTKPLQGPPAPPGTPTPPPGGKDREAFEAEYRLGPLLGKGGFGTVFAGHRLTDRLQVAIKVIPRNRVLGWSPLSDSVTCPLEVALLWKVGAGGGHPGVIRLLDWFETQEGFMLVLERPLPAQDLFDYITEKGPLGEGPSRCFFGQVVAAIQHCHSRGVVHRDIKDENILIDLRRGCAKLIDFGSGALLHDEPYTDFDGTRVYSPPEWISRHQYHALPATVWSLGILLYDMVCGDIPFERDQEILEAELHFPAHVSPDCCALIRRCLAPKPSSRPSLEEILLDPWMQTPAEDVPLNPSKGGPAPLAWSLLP
Procedure, shortened: as §1

GSK3β = GSK3β (Homo sapiens, UniProt P49841); assay: GSK3β ATP depletion assay; format: biochemical; conditions: ATP depletion assay; read-out: GSK3b IC50
Chain of GSK3β (P49841 whole entry, species assumed): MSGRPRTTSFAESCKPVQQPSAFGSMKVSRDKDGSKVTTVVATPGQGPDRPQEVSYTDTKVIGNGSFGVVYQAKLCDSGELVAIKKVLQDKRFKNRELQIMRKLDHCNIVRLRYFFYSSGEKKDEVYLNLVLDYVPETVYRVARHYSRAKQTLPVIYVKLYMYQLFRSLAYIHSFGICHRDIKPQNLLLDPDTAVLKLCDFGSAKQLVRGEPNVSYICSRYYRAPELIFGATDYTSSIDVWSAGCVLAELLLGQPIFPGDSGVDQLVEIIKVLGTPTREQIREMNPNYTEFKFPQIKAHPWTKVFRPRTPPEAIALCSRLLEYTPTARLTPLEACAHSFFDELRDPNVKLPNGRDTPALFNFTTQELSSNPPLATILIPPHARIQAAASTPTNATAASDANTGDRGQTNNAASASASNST
Procedure, shortened: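 Human GSK3β (5 nM) preincubated 15 min with 10 μM biotinylated phospho-CREB peptide in pH 7.5 Tris buffer (15 mM MgCl2, 1 mM DTT, 0.1% BSA, 2.5% DMSO). Reaction started with 2 μM ATP and run to about 50% ATP depletion. Remaining ATP measured by KinaseGlo luminescence.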

| Compound | IC50 (PIM3) [nM] | EC50 [1] [nM] | IC50 (PIM1) [nM] | IC50 (PIM2) [nM] | IC50 (GSK3β) [nM] |
| --- | --- | --- | --- | --- | --- |
| CC[C@]1(O)[C@H](N)C[C@H](c2ccncc2NC(=O)c2ccc(F)c(-c3c(F)cc(OC)cc3F)n2)O[C@@H]1C [Example 258, N-(4-((2R,4R,5S,6R)-4-amino-5-ethyl-5-hydroxy-6-methyltetrahydro-2H-pyran-2-yl)pyridin-3-yl)-6-(2,6-difluoro-4-methoxyphenyl)-5-fluoropicolinamide] | 0.5 |  | 0.04 | 6.2 | 183 |
| CC(C)(C)[C@H]1O[C@@H](c2ccncc2NC(=O)c2nc(-c3c(F)cccc3F)ncc2N)C[C@@H](N)[C@@H]1O [Example 260, 5-amino-N-(4-((2R,4R,5S,6R)-4-amino-6-tert-butyl-5-hydroxytetrahydro-2H-pyran-2-yl)pyridin-3-yl)-2-(2,6-difluorophenyl)pyrimidine-4-carboxamide] | 3.6 |  | 0.34 | 6 | 1040 |
| C[C@]1(O)[C@H](N)C[C@H](c2ccncc2NC(=O)c2nc(-c3c(F)cccc3F)c(F)cc2N)O[C@@H]1C1CC1 [Example 261, 3-amino-N-(4-((2R,4R,5S,6R)-4-amino-6-cyclopropyl-5-hydroxy-5-methyltetrahydro-2H-pyran-2-yl)pyridin-3-yl)-6-(2,6-difluorophenyl)-5-fluoropicolinamide] | 1.2 |  | 0.11 | 6.1 | 5520 |
| C[C@]1(O)[C@H](N)C[C@H](c2ccncc2NC(=O)c2nc(-c3c(F)cccc3F)ncc2N)O[C@@H]1C1CC1 [Example 262, 5-amino-N-(4-((2R,4R,5S,6R)-4-amino-6-cyclopropyl-5-hydroxy-5-methyltetrahydro-2H-pyran-2-yl)pyridin-3-yl)-2-(2,6-difluorophenyl)pyrimidine-4-carboxamide] | 18.1 |  | 2.15 | 18.2 | 2020 |
| COc1cc(F)c(-c2nc(C(=O)Nc3cnccc3[C@H]3C[C@@H](N)[C@](C)(O)[C@@H](C4CC4)O3)ccc2F)c(F)c1 [Example 265, N-(4-((2R,4R,5S,6R)-4-amino-6-cyclopropyl-5-hydroxy-5-methyltetrahydro-2H-pyran-2-yl)pyridin-3-yl)-6-(2,6-difluoro-4-methoxyphenyl)-5-fluoropicolinamide] | 2.3 |  | 0.13 | 9.6 | 1050 |
| C[C@@]1(O)[C@@H](N)C[C@@H](c2ccncc2NC(=O)c2ccc(F)c(-c3c(F)cccc3F)n2)OC12CC2 [Example 266, N-(4-((5S,7S,8R)-7-amino-8-hydroxy-8-methyl-4-oxaspiro[2.5]octan-5-yl)pyridin-3-yl)-6-(2,6-difluorophenyl)-5-fluoropicolinamide] | 27.5 |  | 1.98 | 394 | 6060 |
| C[C@]1(O)[C@H](N)C[C@H](c2ccncc2NC(=O)c2ccc(F)c(-c3c(F)cccc3F)n2)OC12CC2 [Example 267, N-(4-((5R,7R,8S)-7-amino-8-hydroxy-8-methyl-4-oxaspiro[2.5]octan-5-yl)pyridin-3-yl)-6-(2,6-difluorophenyl)-5-fluoropicolinamide] | 29.7 |  | 2.52 | 213 | 6930 |
| COc1cc(F)c(-c2nc(C(=O)Nc3cnccc3[C@H]3C[C@@H](N)[C@H](O)[C@@H](C(C)(C)C)O3)ccc2F)c(F)c1 [Example 269, N-(4-((2R,4R,5S,6R)-4-amino-6-tert-butyl-5-hydroxytetrahydro-2H-pyran-2-yl)pyridin-3-yl)-6-(2,6-difluoro-4-methoxyphenyl)-5-fluoropicolinamide] | 0.5 |  | 0.03 | 2.4 | 613 |
| CC(C)[C@H]1O[C@@H](c2ccncc2NC(=O)c2ccc(F)c(-c3c(F)cccc3F)n2)C[C@@H](N)[C@@H]1O [Example 271, N-(4-((2R,4R,5S,6R)-4-amino-5-hydroxy-6-isopropyltetrahydro-2H-pyran-2-yl)pyridin-3-yl)-6-(2,6-difluorophenyl)-5-fluoropicolinamide] | 2.1 |  | 0.15 | 4.3 | 2750 |
| CC(C)[C@H]1O[C@@H](c2ccncc2NC(=O)c2nc(-c3c(F)cccc3F)ncc2N)C[C@@H](N)[C@@H]1O [Example 272, 5-amino-N-(4-((2R,4R,5S,6R)-4-amino-5-hydroxy-6-isopropyltetrahydro-2H-pyran-2-yl)pyridin-3-yl)-2-(2,6-difluorophenyl)pyrimidine-4-carboxamide] | 9 |  | 0.66 | 10.9 | 1220 |
| CC(C)(C)[C@H]1O[C@@H](c2ccncc2NC(=O)c2ccnc(-c3c(F)cccc3F)n2)C[C@@H](N)[C@@H]1O [Example 277, N-(4-((2R,4R,5S,6R)-4-amino-6-(tert-butyl)-5-hydroxytetrahydro-2H-pyran-2-yl)pyridin-3-yl)-2-(2,6-difluorophenyl)pyrimidine-4-carboxamide] | 22.7 |  | 1.05 | 27.5 | 499 |
| C[C@]1(O)[C@H](N)C[C@H](c2ccncc2NC(=O)c2ccc(F)c(-c3c(F)cccc3F)n2)OC12CC2 [Example 289, N-(4-((5R,7R,8S)-7-amino-8-hydroxy-8-methyl-4-oxaspiro[2.5]octan-5-yl)pyridin-3-yl)-6-(2,6-difluorophenyl)-5-fluoropicolinamide] | 29.7 |  | 2.5 | 213 | 6930 |

The remaining compounds from weak to strong by IC50 (PIM3), led by results:

| IC50 (PIM3) [nM] | EC50 [1] [nM] | IC50 (PIM1) [nM] | IC50 (PIM2) [nM] | IC50 (GSK3β) [nM] | Compound |
| --- | --- | --- | --- | --- | --- |
| 232 | 2430 | 2 | 229 |  | CC(C)[C@H]1O[C@@H](c2ccncc2NC(=O)c2ccc(F)c(-c3ccc(C#N)cc3F)n2)C[C@@H](N)[C@@H]1O [Example 330, N-(4-((2R,4R,5S,6R)-4-amino-5-hydroxy-6-isopropyltetrahydro-2H-pyran-2-yl)pyridin-3-yl)-6-(4-cyano-2-fluorophenyl)-5-fluoropicolinamide] |
| 172 | 540 | 7 | 165 |  | CC(C)[C@@H]1C[C@H](N)CC(c2ccncc2NC(=O)c2ccnc(-c3c(F)cccc3F)n2)O1 (stereo in doubt) [Example 328, N-(4-((2S,4S,6S)-4-amino-6-isopropyltetrahydro-2H-pyran-2-yl)pyridin-3-yl)-2-(2,6-difluorophenyl)pyrimidine-4-carboxamide] |
| 23.1 |  | 1.26 | 72.7 | 334 | C[C@]1(O)[C@H](N)C[C@H](c2ccncc2NC(=O)c2csc(-c3c(F)cccc3F)n2)O[C@@H]1C1CC1 [Example 263, N-(4-((2R,4R,5S,6R)-4-amino-6-cyclopropyl-5-hydroxy-5-methyltetrahydro-2H-pyran-2-yl)pyridin-3-yl)-2-(2,6-difluorophenyl)thiazole-4-carboxamide] |
| 14.7 | 190 | 0.7 | 14.7 |  | CC(C)[C@H]1O[C@@H](c2ccncc2NC(=O)c2ccc(F)c(-c3c(F)ccc(C#N)c3F)n2)C[C@@H](N)[C@@H]1O [Example 329, N-(4-((2R,4R,5S,6R)-4-amino-5-hydroxy-6-isopropyltetrahydro-2H-pyran-2-yl)pyridin-3-yl)-6-(3-cyano-2,6-difluorophenyl)-5-fluoropicolinamide] |
| 3.6 |  | 0.16 | 20.3 | 207 | CC(C)(C)[C@H]1O[C@@H](c2ccncc2NC(=O)c2csc(-c3c(F)cccc3F)n2)C[C@@H](N)[C@@H]1O [Example 268, N-(4-((2R,4R,5S,6R)-4-amino-6-tert-butyl-5-hydroxytetrahydro-2H-pyran-2-yl)pyridin-3-yl)-2-(2,6-difluorophenyl)thiazole-4-carboxamide] |
| 2.4 |  | 0.11 | 8.1 | 1790 | Cc1cc(F)c(-c2nc(C(=O)Nc3cnccc3[C@H]3C[C@@H](N)[C@](C)(O)[C@@H](C4CC4)O3)ccc2F)c(F)c1 [Example 264, N-(4-((2R,4R,5S,6R)-4-amino-6-cyclopropyl-5-hydroxy-5-methyltetrahydro-2H-pyran-2-yl)pyridin-3-yl)-6-(2,6-difluoro-4-methylphenyl)-5-fluoropicolinamide] |
| 0.5 |  | 0.03 | 3.1 | 1060 | Cc1cc(F)c(-c2nc(C(=O)Nc3cnccc3[C@H]3C[C@@H](N)[C@H](O)[C@@H](C(C)(C)C)O3)ccc2F)c(F)c1 [Example 270, N-(4-((2R,4R,5S,6R)-4-amino-6-tert-butyl-5-hydroxytetrahydro-2H-pyran-2-yl)pyridin-3-yl)-6-(2,6-difluoro-4-methylphenyl)-5-fluoropicolinamide] |
| 0.4 |  | 0.03 | 4.8 | 218 | CC[C@]1(O)[C@H](N)C[C@H](c2ccncc2NC(=O)c2ccc(F)c(-c3c(F)cc(C)cc3F)n2)O[C@@H]1C [Example 259, N-(4-((2R,4R,5S,6R)-4-amino-5-ethyl-5-hydroxy-6-methyltetrahydro-2H-pyran-2-yl)pyridin-3-yl)-6-(2,6-difluoro-4-methylphenyl)-5-fluoropicolinamide] |
